# Key:
# [1] = Photostability under irradiation in neutral and acidic solutions; format: physicochemical; conditions: 300 s irradiation
# Description: Next, the effect of potential biochemical species on the fluorescence intensity of PyQPMe in both pH 3.0 and 8.2 buffer solutions was investigated. […] Fluorescence spectra of PyQPMe in various solvents with different polarities were also obtained. […] Furthermore, the photostability of PyQPMe was investigated under different pH conditions. […] Taken together, the above photophysical results identify that PyQPMe is a pH-sensitive probe, well suited for studying endolysosome dynamics via high-resolution imaging techniques.
# [2] = n-octanol/water partition coefficient by shake-flask ultraviolet spectrophotometry; format: physicochemical; conditions: room temperature, read-out: n-octanol/water partition coefficient (Log P)
# Procedure: The measurements of hydrophilicity. Hydrophilicity was determined by a shake-flask ultraviolet spectrophotometry method to measure the n-octanol/water partition coefficients (Log P). First, 25 mL of n-octanol and 25 mL of water were mixed at room temperature. After 24 h, the standard solutions of the sample (10 μM) were prepared by using the preceding saturated n-octanol phase and water phase solution, respectively. Later, the test solutions were prepared by mixing 10 ml of standard solution in n-octanol and 10 ml of standard solution in water. After shaking, the mixture of test solution was centrifuged for 5 min. The n-octanol phase layer was separated from the water phase layer and the absorbance of the two layers was measured by Agilent Cary 8453 spectrophotometer. Based on the Beer-Lambert law, the concentrations of the sample in the n-octanol phase (Co) and the water phase (Cw) were calculated. Finally, the n-octanol/water partition coefficients (Log P) were further calculated by using the following equation: […]
# HeLa cells [3] = assay: Confocal imaging of PyQPMe uptake by endocytosis; format: cell-based
# Procedure: In some aspects, the probes of the present disclosure can be administered to living cells, either in vitro or in vivo. To take advantage of the absorption and emission spectra of PyQPMe, this probe was administered in high-resolution microscopy for living cells. The toxicity of PyQPMe was examined at first before characterizing its imaging properties. Cell Counting Kit-8 (CCK-8) was used to investigate the viability of HeLa cells stained with PyQPMe. […] Next, PyQPMe was characterized by Leica Stellaris Confocal Microscope in the LIGHTNING module for high-resolution imaging. […] The signal tended to be endolysosomes because endolysosomes have a low pH range from 4.7 to 6.3. […] Since low temperatures can inhibit endocytosis, experiments at a lower temperature were performed.
# (§1) Leica Stellaris 8 Confocal imaging. High-resolution images were acquired on a commercial Leica Stellaris 8 Confocal Microscope under LIGHTNING mode. Laser powers were set at 10% intensity for 405 nm and 640 nm channels. The objective was 63×/1.4. High-resolution images were captured from the randomly selected field of view and analyzed with Leica LAS X and ImageJ software. All the images were exported on the Auto scale of the Leica LAS X software. Cells were seeded on glassed-bottomed cell dishes (MatTek) for 24 hours. Cells stained with PyQPMe (20 nM, 10 min) were treated with Wortmannin (1 μM, 24 h), CCCP ([…], 24 h), rapamycin (0.5 μM, 24 h), chloroquine (25 μM, 30 min), and NH4Cl (50 mM, 30 min). All PCC values were analyzed in the CellProfiler.
# HeLa cells [4] = assay: Photobleaching comparison of LTR and PyQPMe; format: cell-based; conditions: 100% laser power, after 40 s of scans; % of original value
# Description: FIGS. 4A-4G depict the characterization of imaging properties of PyQPMe-stained endolysosomes. FIG. 4A. Confocal image of PyQPMe-stained endolysosomes and fluorescence intensity profile (FIG. 4B) of the write line in FIG. 4A. FIG. 4C. Confocal image of PyQPMe-stained late endosomes/lysosomes and fluorescence intensity profile (FIG. 4D) of the write line in FIG. 4C. FIG. 4E. Confocal images of HeLa cells labeled with LTR and PyQPMe and 3D fluorescence intensity plots of rectangles of integration. FIG. 4F. Continuous imaging of HeLa cells labeled with LTR or PyQPMe at 100% laser intensity for photobleaching, and each scan time was 10 s, images were captured under a red channel. FIG. 4G. Normalized fluorescence intensity of LTR and PyQPMe in FIG. 4F.
# Resistance to photobleaching is a crucial property of probes that determines whether they can be used for long-term fluorescence tracking. To characterize this property, a photobleaching comparison study between LTR and PyQPMe was done in HeLa cells (FIG. 4F).
# Leica Stellaris 8 Confocal imaging. High-resolution images were acquired on a commercial Leica Stellaris 8 Confocal Microscope under LIGHTNING mode. Laser powers were set at 10% intensity for 405 nm and 640 nm channels. […] High-resolution images were captured from the randomly selected field of view and analyzed with Leica LAS X and ImageJ software. […] All PCC values were analyzed in the CellProfiler.
# [5] = test system: endolysosomes in HeLa cells; assay: Dynamics of PyQPMe-stained endolysosomes (puncta counting); format: cell-based
# Procedure: FIGS. 5A-5H depict the characterization of dynamics of PyQPMe-stained endolysosomes. FIG. 5A. Confocal images of HeLa cells stained with PyQPMe following treatment with or without Wortmannin for 24 h. FIG. 5B. Schematic illustration of the effect of Wortmannin which inhibits the conversion from early endosomes into late endosomes. FIG. 5C. Quantification of total endolysosomes and late endosomes/lysosomes in PyQPMe-stained HeLa cells with or without Wortmannin treatment. FIG. 5D. The ratio of the number of late endosomes/lysosomes to total endolysosomes in PyQPMe-stained HeLa cells treated with or without Wortmannin. FIG. 5E. Confocal images of HeLa cells stained with PyQPMe for 10 min and 60 min. FIG. 5F. The mean red puncta fluorescence intensity of PyQPMe-stained HeLa cells for 10 min and 60 min incubation. FIG. 5G. Quantification of total endolysosomes and late endosomes/lysosomes in PyQPMe-stained HeLa cells for 10 min and 60 min. FIG. 5H. The ratio of the number of late endosomes/lysosomes to total endolysosomes in PyQPMe-stained HeLa cells for 10 min and 60 min. Data are given as M±SEM (n=10 independent samples from 10 cells for each statistical analysis); the statistical differences were analyzed by Student's t-test, p<0.05 is considered to statistical significant (** p≤0.01; *** p≤0.001; **** p≤0.0001; ns p>0.05).
# Because of the popularity of quantitative cell biology, it is important to design powerful tools that can digitize individual cells and subcellular organelles to elucidate biological problems in detail. With its great pH response, long-term photostability, and excellent signal-to-noise ratio for high-resolution imaging, PyQPMe was successfully used to track the dynamics of endolysosomes within cells by counting the number of puncta fluorescence signals in both green and red channels (FIG. 5A).
# Next, the effects of different incubation time on the endocytic pathway were tested.
# as §1
structure (smiles),measurement,setting,value
"CN1CCN(c2ccc(/C=C/c3ccc4cc(-c5ccncc5)ccc4[n+]3C)cc2)CC1 [PyQPMe, (E)-1-methyl-2-(4-(4-methylpiperazin-1-yl)styryl)-6-(pyridin-4-yl)quinolin-1-ium]",photostability: change of fluorescence intensity,[1],negligible change
same,logP at 10 µM,[2],~-0.65
same,fluorescence signal inside HeLa cells at high concentration,HeLa cells [3]; 2 μM PyQPMe,same fluorescence signal inside HeLa cells could be observed
same,endolysosomes detected at low temperature,HeLa cells [3]; 4° C. vs 37° C.,Fewer endolysosomes were detected
same,fluorescence in HeLa cells,"HeLa cells [3]; 405 nm excitation, 10 min incubation",punctate fluorescence signals in the cytoplasm
same,fluorescence signal remaining after photobleaching,HeLa cells [4],22%
same,intensity of puncta fluorescence in red channel,[5]; 60 min vs 10 min incubation,increased during 60 min incubation
same,number of total endolysosomes and late endosomes/lysosomes detected,[5]; 60 min vs 10 min incubation,more PyQPMe-stained total endolysosomes and late endosomes/lysosomes were simultaneously detected
same,percentage of late endosomes/lysosomes in total endolysosomes,"[5]; regardless of incubation time (10 min, 60 min)",remained stable

# Source: patent US20260318831A1 (University of Cincinnati, priority 2023, published 2026)
